Measurements published in patent US7435837B2, “Dihydrobenzofuranyl alkanamine derivatives and methods for using same” (Wyeth, priority 2003, dated 2008).

Columns and labels:
[1] = target: T1, human 5-hydroxytryptamine-2C (h5-HT2C) receptor (Homo sapiens, UniProt P28335); test: [125I]DOI binding to membranes of CHO cells expressing the human 5-HT2C receptor; conditions: [125I]DOI radioligand, CHO cell membranes, room temperature 60 min; read-out: 5-HT2C Affinity Ki
T1 construct: expressed in transfected cells; host or cells: CHO (Chinese Hamster Ovary) cells; membranes
T1 sequence (P28335 33-458): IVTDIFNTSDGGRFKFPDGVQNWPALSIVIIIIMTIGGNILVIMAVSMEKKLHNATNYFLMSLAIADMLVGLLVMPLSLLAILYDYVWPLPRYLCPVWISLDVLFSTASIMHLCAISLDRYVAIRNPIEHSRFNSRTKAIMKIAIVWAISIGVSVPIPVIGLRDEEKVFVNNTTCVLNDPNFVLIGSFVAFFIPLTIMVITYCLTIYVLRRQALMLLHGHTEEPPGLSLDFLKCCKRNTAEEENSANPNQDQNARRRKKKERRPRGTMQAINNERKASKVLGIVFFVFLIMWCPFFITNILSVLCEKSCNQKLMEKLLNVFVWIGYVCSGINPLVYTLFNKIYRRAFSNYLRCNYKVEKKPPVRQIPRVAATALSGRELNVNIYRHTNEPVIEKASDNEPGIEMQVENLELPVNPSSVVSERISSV

[2] = target: T2, human 5-HT2C receptor (Homo sapiens, UniProt P28335); test: 5-HT2C receptor-stimulated calcium mobilization (FLIPR) in CHO cells; assay type: cell-based; conditions: for Emax: CHO, read-out: 5-HT2C Function Emax (%); for Emax / 5-HT2C Function Emax (%): percentage of the response observed with a maximally effective concentration of 5-HT; for EC50: calcium mobilization, CHO cells stably expressing human 5-HT2C, read-out: 5-HT2C Function EC50;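 as to all read-outs here: Fluo-3-AM fluorescence read on FLIPR every 1 s, agonist added after 10 baseline reads, response taken as peak minus lowest raw fluorescence count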
T2 sequence (P28335 33-458): T1 sequence (P28335 33-458)

Structure (SMILES)	Ki [1] [nM]	Emax [2] [%]	EC50 [2] [nM]	5-HT2C Function Emax (%) [2] [%]
COc1cc2c(c(-c3ccccc3OC)c1)OC(CCN)C2 (racemic) [Example 554, (±)-{2-[7-(2-methoxyphenyl)-5-methoxy-2,3-dihydro-1-benzofuran-2-yl]ethyl}amine]	41	70	2	
CNCC1Cc2cccc(-c3c(Cl)cc(Cl)cc3Cl)c2O1 (racemic) [Example 555, (±)-{N-methyl-1-[(7-(2,4,6-trichlorophenyl)-2,3-dihydro-1-benzofuran-2-yl]methanamine]	0.6	80	4	
NCC1Cc2cc(Cl)cc(-c3cccc(F)c3F)c2O1 (single isomer, unassigned) [Example 246, (±)-{[5-chloro-7-(2,3-difluorophenyl)-2,3-dihydro-1-benzofuran-2-yl]methyl}amine]	23		1490	
NCC1Cc2c(cccc2-c2ccccc2)O1 (single isomer, unassigned; (+)) [Example 2, (+)-1-(4-phenyl-2,3-dihydro-1-benzofuran-2-yl)methanamine]	16	90	61	
Cc1ccccc1-c1cccc2c1CC(CN)O2 (single isomer, unassigned; (+)) [Example 5, (+)-1-[4-(2-methylphenyl)-2,3-dihydro-1-benzofuran-2-yl]methanamine]	9	90	208	
NCC1Cc2cccc(C3CCCC3)c2O1 (single isomer, unassigned; (+)) [Example 10, (+)-(7-cyclopentyl-2,3-dihydro-1-benzofuran-2-yl)methylamine]	42		179	60
NCC1Cc2cccc(Cc3ccccc3)c2O1 (single isomer, unassigned; (+)) [Example 16, (+)-1-(7-benzyl-2,3-dihydro-1-benzofuran-2-yl)methanamine]	274	65	451	
CC(C)c1cccc2c1OC(CN)C2 (single isomer, unassigned; (+)) [Example 20, (+)-(7-isopropyl-2,3-dihydro-1-benzofuran-2-yl)methylamine]	24		178	70
Cc1c(Cl)cc(C(C)C)c2c1CC(CN)O2 (single isomer, unassigned; (+)) [Example 23, (+)-1-(5-chloro-7-isopropyl-4-methyl-2,3-dihydro-1-benzofuran-2-yl)methanamine]	9		73	80
CC(C)(C)c1cccc2c1OC(CN)C2 (single isomer, unassigned; (+)) [Example 26, (+)-1-(7-tert-butyl-2,3-dihydro-1-benzofuran-2-yl)methanamine]	71		79	100
CC(C)(C)c1cc(Cl)cc2c1OC(CN)C2 (single isomer, unassigned; (+)) [Example 29, (+)-1-(7-tert-butyl-5-chloro-2,3-dihydro-1-benzofuran-2-yl)methanamine]	35		229	80
NCC1Cc2cccc(-c3ccccc3)c2O1 (single isomer, unassigned; (+)) [Example 37]	1	100	1	
Cc1cccc(-c2cccc3c2OC(CN)C3)c1 (single isomer, unassigned; (+)) [Example 42, (+)-1-[7-(3-methylphenyl)-2,3-dihydro-1-benzofuran-2-yl]methanamine]	17	100	162	
NCC1Cc2cccc(-c3ccsc3)c2O1 (single isomer, unassigned; (+)) [Example 45, (+)-1-(7-thien-3-yl-2,3-dihydro-1-benzofuran-2-yl)methanamine]	2	90	5	
Cc1ccccc1-c1cccc2c1OC(CN)C2 (single isomer, unassigned; (+)) [Example 48, (+)-1-[7-(2-methylphenyl)-2,3-dihydro-1-benzofuran-2-yl]methanamine]	0.3	100	2.4	
NCC1Cc2cccc(-c3ccccc3C(F)(F)F)c2O1 (single isomer, unassigned; (+)) [Example 55, (+)-1-{7-[2-(trifluoromethyl)phenyl]-2,3-dihydro-1-benzofuran-2-yl}methanamine]	3		48	70

Structure (SMILES)	Ki [1] [nM]	Emax [2] [%]	EC50 [2] [nM]	5-HT2C Function Emax (%) [2] [%]
Cc1cccc(C)c1-c1cccc2c1OC(CN)C2 (single isomer, unassigned; (+)) [Example 58, (+)-1-[7-(2,6-dimethylphenyl)-2,3-dihydro-1-benzofuran-2-yl]methanamine]	9		313	60
CC(C)c1ccccc1-c1cccc2c1OC(CN)C2 (single isomer, unassigned; (+)) [Example 62, (+)-[7-(2-isopropylphenyl)-2,3-dihydro-1-benzofuran-2-yl]methylamine]	40	70	130	
NCC1Cc2cccc(-c3cccc(Cl)c3)c2O1 (single isomer, unassigned; (+)) [Example 66, (+)-1-[7-(3-chlorophenyl)-2,3-dihydro-1-benzofuran-2-yl]methanamine]	5		250	100
Cc1ccc(-c2cccc3c2OC(CN)C3)cc1 (single isomer, unassigned; (+)) [Example 71, (+)-1-[7-(4-methylphenyl)-2,3-dihydro-1-benzofuran-2-yl]methanamine]	1	100	1.4	
NCC1Cc2cccc(-c3ccc(F)cc3)c2O1 (single isomer, unassigned; (+)) [Example 74, (+)-1-[7-(4-fluorophenyl)-2,3-dihydro-1-benzofuran-2-yl]methanamine]	3	100	11	
NCC1Cc2cccc(-c3ccc(Cl)cc3)c2O1 (single isomer, unassigned; (+)) [Example 77, (+)-1-[7-(4-chlorophenyl)-2,3-dihydro-1-benzofuran-2-yl]methanamine]	2	100	8	
COc1ccc(-c2cccc3c2OC(CN)C3)cc1 (single isomer, unassigned; (+)) [Example 80, (+)-1-[7-(4-methoxyphenyl)-2,3-dihydro-1-benzofuran-2-yl]methanamine]	1		17	90
NCC1Cc2cc(Cl)cc(-c3ccccc3)c2O1 (single isomer, unassigned; (+)) [Example 85, (+)-1-(5-chloro-7-phenyl-2,3-dihydro-1-benzofuran-2-yl)methanamine]	5	100	557	
CNCC1Cc2cc(Cl)cc(-c3ccsc3)c2O1 (single isomer, unassigned; (+)) [Example 93, (+)-N-[(5-chloro-7-thien-3-yl-2,3-dihydro-1-benzofuran-2-yl)methyl]-N-methylamine]	13	80	874	
Cc1ccccc1-c1cc(Cl)cc2c1OC(CN)C2 (single isomer, unassigned; (+)) [Example 96, (+)-1-[5-chloro-7-(2-methylphenyl)-2,3-dihydro-1-benzofuran-2-yl]methanamine]	1		27	100
NCC1Cc2cc(F)cc(-c3ccccc3Cl)c2O1 (single isomer, unassigned; (+)) [Example 101, (+)-1-[7-(2-chlorophenyl)-5-fluoro-2,3-dihydro-1-benzofuran-2-yl]methanamine]	0.2		0.32	100
Cc1ccccc1-c1cc(F)cc2c1OC(CN)C2 (single isomer, unassigned; (+)) [Example 105, (+)-1-[5-fluoro-7-(2-methylphenyl)-2,3-dihydro-1-benzofuran-2-yl]methanamine]	1		4	95
Cc1cccc(C)c1-c1cccc2c1CC(CN)O2 (single isomer, unassigned; (+)) [Example 126, (+)-1-[4-(2,6-dimethylphenyl)-2,3-dihydro-1-benzofuran-2-yl]methanamine]	17	40	2720	
COc1ccccc1-c1cccc2c1OC(CN)C2 (single isomer, unassigned; (+)) [Example 128, (+)-1-[7-(2-methoxyphenyl)-2,3-dihydro-1-benzofuran-2-yl]methanamine]	41	70	24	
NCC1Cc2cccc(-c3ccccc3Cl)c2O1 (single isomer, unassigned; (+)) [Example 130, (+)-1-[7-(2-chlorophenyl)-2,3-dihydro-1-benzofuran-2-yl]methanamine]	4.8		54	80
